# Data reported in ChEMBL document CHEMBL1132329, “Synthesis and histone deacetylase inhibitory activity of new benzamide derivatives” (J Med Chem, 1999).
# Biological target: Histone deacetylase
# Assay: Inhibitory activity against partially purified histone deacetylase of human leukemia K562 cells.
# Type: cell-based
row,SMILES,IC50
1,Cc1ccc(NC(=O)c2ccc(CNC(=O)OCc3cccnc3)cc2)c(N)c1,> 100 µM
2,Cc1ccc(N)c(NC(=O)c2ccc(CNC(=O)OCc3cccnc3)cc2)c1,2.8 µM
3,O=C(NCc1ccc(C(=O)Nc2ccccc2)cc1)OCc1cccnc1,> 100 µM
4,Nc1ccc(NC(=O)c2ccc(CNC(=O)OCc3cccnc3)cc2)cc1,> 100 µM
5,CCCC(=O)[O-].[Na+] [SODIUM BUTYRATE],140 µM
6,Nc1cc(Cl)ccc1NC(=O)c1ccc(CNC(=O)OCc2cccnc2)cc1,40 µM
7,COc1ccc(NC(=O)c2ccc(CNC(=O)OCc3cccnc3)cc2)c(N)c1,44 µM
8,Nc1ccc(F)cc1NC(=O)c1ccc(CNC(=O)OCc2cccnc2)cc1,6 µM
9,CC(=O)Nc1ccccc1NC(=O)c1ccc(CNC(=O)OCc2cccnc2)cc1,> 100 µM
10,Nc1cccc(NC(=O)c2ccc(CNC(=O)OCc3cccnc3)cc2)c1,> 100 µM
11,Nc1ccc(Cl)cc1NC(=O)c1ccc(CNC(=O)OCc2cccnc2)cc1,7.7 µM
12,Cc1cccc(NC(=O)c2ccc(CNC(=O)OCc3cccnc3)cc2)c1N,> 100 µM
13,O=C(NCc1ccc(C(=O)Nc2ccccc2O)cc1)OCc1cccnc1,2.2 µM
14,COc1ccc(N)c(NC(=O)c2ccc(CNC(=O)OCc3cccnc3)cc2)c1,4.6 µM
